Entries after “also recorded” stand apart in the source; their conditions may differ. Where a SMILES comes first, the peptide text is derived from it. Bridges are numbered along the chain shown (N, C = ends). Triazole bridges read from a SMILES are 1,4-linked. [ ]: non-standard residue; d: D form. The star is where a group is joined. Benzoyl(4-guanidino) = N=C(N)Nc1ccc(C(=O)*)cc1; Aha = [N-]=[N+]=NCC[C@H](N)C(=O)O; β3hV = CC(C)[C@H](N)CC(=O)O; Nle = CCCC[C@H](N)C(=O)O; Pra = C#CC[C@H](N)C(=O)O
What was measured:
[1] = system: high-fat diet-induced obese C57BL/6 mice; assay: Diet-induced obesity model: adipose tissue weights; assay type: in vivo, mouse
Protocol: Male C57BL/6 mice at 4 weeks of age were provided by BioLasco Taiwan (under Charles River Laboratories Licensee). All animals were maintained in an environment with well-controlled temperature (20–24 °C) and humidity (30–70%) with 12 h light/dark cycles. Free access to standard lab diet (MFG (Oriental Yeast Co., Ltd., Japan)) and autoclaved tap water was granted. All aspects of this work including housing, experimentation, and animal disposal were performed in general accordance with the “Guide for the Care and Use of Laboratory Animals: Eighth Edition” (National Academies Press, Washington, D.C., 2011) in our laboratory animal facility accredited by the […]. In addition, the protocol for animal care and use was reviewed and approved by the Institutional Animal Care and Use Committee (IACUC) at Pharmacology Discovery Services Taiwan, Ltd.
The protocol was performed for all groups and all animals. Male C57BL/6 mice were fed a high-fat diet (HFD) (60% of calories) or a standard chow diet (STD) from 4 weeks of age. Thirty (30) mice were fed the HFD and 10 mice were fed the STD (for 8 weeks before treatment) for a total of 20 weeks. The mice assigned to the STD diet were maintained on this diet throughout the study as a reference group of lean control mice. From Week 9, HFD-fed mice were grouped by body weight before dosing. Body weight was recorded three times weekly from Week 9. Food/water intake was recorded twice weekly from Week 9. Blood chemistry analyzes were performed in Weeks 8 (before dosing, Day 56), 16 (Day 113) and 20 (Day 141), including serum insulin, total cholesterol (T-CHO), triglyceride (TG), alanine aminotransferase (ALT), aspartate aminotransferase (AST), uric acid (UA), creatinine, potassium (K^+) and sodium (Na^+). At the termination in Week 20 (Day 141), the adipose tissue weight, including epididymal, mesenteric, inguinal, retroperitoneal, and brown fat, was measured after the animals were sacrificed. Two-way ANOVA followed by Bonferroni’s tests were applied to ascertain the difference between vehicle control and treated animals. Significance was set at p < 0.05 level. The following parameters were measured: (1) body weight three times weekly; (2) food/water intake twice weekly; (3) blood chemistry in Weeks 8 (before dosing), 16 and 20 including glucose, insulin, serum lipids (triglycerides (TG), total cholesterol (TC), AST, alanine aminotransferase (ALT), uric acid, creatinine, potassium and sodium through 16-h fasting animals; and finally, (4) total body fat (including visceral and subcutaneous fat) in Week 20.

[2] = system: high-fat diet-induced obese C57BL/6 mice; assay: Diet-induced obesity model: food and water intake; assay type: in vivo, mouse; settings: 5 and 10 mg/kg i.p. once daily, HFD mice
Protocol: Male C57BL/6 mice at 4 weeks of age were provided by BioLasco Taiwan (under Charles River Laboratories Licensee). All animals were maintained in an environment with well-controlled temperature (20–24 °C) and humidity (30–70%) with 12 h light/dark cycles. Free access to standard lab diet (MFG (Oriental Yeast Co., Ltd., Japan)) and autoclaved tap water was granted. […]
The protocol was performed for all groups and all animals. […] Body weight was recorded three times weekly from Week 9. Food/water intake was recorded twice weekly from Week 9. […] At the termination in Week 20 (Day 141), the adipose tissue weight, including epididymal, mesenteric, inguinal, retroperitoneal, and brown fat, was measured after the animals were sacrificed. […] The following parameters were measured: (1) body weight three times weekly; (2) food/water intake twice weekly; (3) blood chemistry in Weeks 8 (before dosing), 16 and 20 including glucose, insulin, serum lipids (triglycerides (TG), total cholesterol (TC), AST, alanine aminotransferase (ALT), uric acid, creatinine, potassium and sodium through 16-h fasting animals; and finally, (4) total body fat (including visceral and subcutaneous fat) in Week 20.

[3] = biological target: T1, human MCH-R1 (Homo sapiens, UniProt Q99705); assay: MCH-induced cytosolic Ca2+ ion mobilization, antagonist effect; assay type: cell-based
T1 construct: expressed in transfected cells
T1 sequence (Q99705 whole entry): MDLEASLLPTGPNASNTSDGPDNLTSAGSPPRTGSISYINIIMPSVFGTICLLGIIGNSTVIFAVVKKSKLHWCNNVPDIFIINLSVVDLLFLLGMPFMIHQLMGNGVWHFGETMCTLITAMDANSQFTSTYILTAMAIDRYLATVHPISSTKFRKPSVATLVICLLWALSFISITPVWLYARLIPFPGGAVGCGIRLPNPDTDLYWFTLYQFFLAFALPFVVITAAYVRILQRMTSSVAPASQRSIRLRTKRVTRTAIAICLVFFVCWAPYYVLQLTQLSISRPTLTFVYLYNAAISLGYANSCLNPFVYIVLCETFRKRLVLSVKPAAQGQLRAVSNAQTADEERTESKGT
Protocol: The functional assay was run onto cells expressing the hMCH-R1 receptor, as described in Wang et al.. In brief, the cells are suspended in DMEM buffer (Invitrogen), then distributed in microplates at a density of 4.104 cells/well. The fluorescent probe (Fluo4 Direct, Invitrogen) mixed with probenecid in Hanks’ Balanced Salt solution (HBSS) (Invitrogen) complemented with 20 mM HEPES (Invitrogen) (pH 7.4) is then added into each well and equilibrated with the cells for 60 min at 37 °C, then 15 min at 22 °C. Then, the assay plates are positioned in a microplate reader (CellLux, PerkinElmer) which is used for the addition of the test compound, reference agonist or HBSS buffer (basal control), and the measurements of changes in fluorescence intensity, which varies proportionally to the free cytosolic Ca^2+ ion concentration. For stimulated control measurements, MCH at 300 nM is added in separate assay wells. The results are expressed as a percentage of the control response to 300 nM MCH. The standard reference agonist is MCH, which is tested in each experiment at several concentrations to generate a concentration-response curve from which its EC50 value is calculated. For the antagonist effect, the results are expressed as a percentage inhibition of the control response to 30 nM MCH, which was added to all tested wells and controls 5 min after the candidate products.

[4] = system: fa/fa rats; assay: Genetic model of obesity (fa/fa rats); assay type: in vivo, rat; settings: data not shown
[5] = 5 and 10 mg/kg i.p. once daily for 12 weeks, Week 20 (Day 141)

CCCC[C@@H]1NC(=O)[C@@H](NC(=O)c2ccc(NC(=N)N)cc2)CCn2cc(nn2)C[C@@H](C(=O)N[C@@H](Cc2c[nH]c3ccccc23)C(=O)O)NC(=O)[C@@H]2CCCN2C(=O)[C@H](CCCNC(=N)N)NC(=O)C[C@H](C(C)C)NC(=O)[C@H](CCCNC(=N)N)NC(=O)[C@H](CC(C)C)NC1=O [GPS18169] ({Benzoyl(4-guanidino)}-[Aha][Nle]LR[β3hV]RP[Pra]W-OH; triazole 1-8)
adipose tissue weight / accumulation ([1]; 5 and 10 mg/kg i.p. once daily for 12 weeks): active in limiting the accumulation of adipose tissues; also recorded: significant decrease
weight of brown fat [1, 5]: significant (p < 0.05) decrease
weight of inguinal fat [1, 5]: significant (p < 0.05) decrease
weight of mesenteric fat [1, 5]: significant (p < 0.05) decrease
weight of retroperitoneal fat [1, 5]: significant (p < 0.05) decrease
weight ratio of adipose tissue to the whole body ([1]; g/100 g of body weight): constant
food intake, treated vs vehicle [2]: no change
water intake, treated vs vehicle [2]: no change
antagonistic functionality (in words) [3]: high picomolar range
Ki ([3]; antagonism of MCH-induced cytosolic Ca2+ mobilization, read-out: Ki (functionality, antagonism at MCH-R1)): 0.028 nM
changes between treated and untreated animals [4]: no changes were recorded

— publication PMC7957705 (Molecules, 2021)
